Data set [1] is described as follows: Glass transition temperature (Tg) by differential scanning calorimetry. As to conditions: DSC, average of two runs. (In general: Differential scanning calorimetry records heat flow against a reference as temperature is scanned.)
Excerpt: The acetylated polyol was recovered by evaporating off the solvent and the derivative characterized by nuclear magnetic resonance spectroscopy (NMR) and differential scanning calorimetry (DSC).
Tgs were obtained as the average of two runs.
The nature of data set [2]: Release of model active from glass layers monitored by absorbance at 510 nm. In kind it is physicochemical. The settings on record: aqueous 5% Tween 20, constant agitation. An excerpt:
Disperse Red 1 was incorporated as a model active in a glass of lactitol nonaacetate (ratio 0.1/100 g/g) by melt mixing. The release of model active from 0.5 mm and 3 mm thickness layers of glass, into either water or an aqueous solution of 5% Tween 20, was monitored by absorbance at 510 nm.

In turn, “α-D-glucopyranosyl-1→6-mannitol nonaacetate [GPM nonaacetate]” gave a Tg in data set [1] of 35 °C.

For `CCN(CCO)c1ccc(N=Nc2ccc([N+](=O)[O-])cc2)cc1` [Disperse red 1], the “time to complete release of active” value in data set [2] (0.5 mm thickness glass) came out at 12 h; in data set [2] (3 mm thickness glass), 72 h.

For “α-D-glucopyranosyl-1→6-sorbitol nonaacetate [GPS nonaacetate]”, the Tg in data set [1] was 17.4 °C.
